Experimental data taken from patent US20130331412A9, “Pharmaceutical Compositions and Administrations Thereof” (VERTEX PHARMACEUTICALS INCORPORATED, priority 2010, published 2013).

Experiments:
Type in all cases: cell-based
human CFTR mutant D110H = molecular target: T1, human CFTR mutant D110H (Homo sapiens, UniProt P13569, D110H); test: FRT cell Ussing chamber chloride transport assay; conditions: FRT cells expressing D110H CFTR
T1 construct: expressed in transfected cells; host or cells: Fisher rat thyroid (FRT) FlpIn cells, pcDNA5/FRT
T1 sequence (P13569 whole entry D110H): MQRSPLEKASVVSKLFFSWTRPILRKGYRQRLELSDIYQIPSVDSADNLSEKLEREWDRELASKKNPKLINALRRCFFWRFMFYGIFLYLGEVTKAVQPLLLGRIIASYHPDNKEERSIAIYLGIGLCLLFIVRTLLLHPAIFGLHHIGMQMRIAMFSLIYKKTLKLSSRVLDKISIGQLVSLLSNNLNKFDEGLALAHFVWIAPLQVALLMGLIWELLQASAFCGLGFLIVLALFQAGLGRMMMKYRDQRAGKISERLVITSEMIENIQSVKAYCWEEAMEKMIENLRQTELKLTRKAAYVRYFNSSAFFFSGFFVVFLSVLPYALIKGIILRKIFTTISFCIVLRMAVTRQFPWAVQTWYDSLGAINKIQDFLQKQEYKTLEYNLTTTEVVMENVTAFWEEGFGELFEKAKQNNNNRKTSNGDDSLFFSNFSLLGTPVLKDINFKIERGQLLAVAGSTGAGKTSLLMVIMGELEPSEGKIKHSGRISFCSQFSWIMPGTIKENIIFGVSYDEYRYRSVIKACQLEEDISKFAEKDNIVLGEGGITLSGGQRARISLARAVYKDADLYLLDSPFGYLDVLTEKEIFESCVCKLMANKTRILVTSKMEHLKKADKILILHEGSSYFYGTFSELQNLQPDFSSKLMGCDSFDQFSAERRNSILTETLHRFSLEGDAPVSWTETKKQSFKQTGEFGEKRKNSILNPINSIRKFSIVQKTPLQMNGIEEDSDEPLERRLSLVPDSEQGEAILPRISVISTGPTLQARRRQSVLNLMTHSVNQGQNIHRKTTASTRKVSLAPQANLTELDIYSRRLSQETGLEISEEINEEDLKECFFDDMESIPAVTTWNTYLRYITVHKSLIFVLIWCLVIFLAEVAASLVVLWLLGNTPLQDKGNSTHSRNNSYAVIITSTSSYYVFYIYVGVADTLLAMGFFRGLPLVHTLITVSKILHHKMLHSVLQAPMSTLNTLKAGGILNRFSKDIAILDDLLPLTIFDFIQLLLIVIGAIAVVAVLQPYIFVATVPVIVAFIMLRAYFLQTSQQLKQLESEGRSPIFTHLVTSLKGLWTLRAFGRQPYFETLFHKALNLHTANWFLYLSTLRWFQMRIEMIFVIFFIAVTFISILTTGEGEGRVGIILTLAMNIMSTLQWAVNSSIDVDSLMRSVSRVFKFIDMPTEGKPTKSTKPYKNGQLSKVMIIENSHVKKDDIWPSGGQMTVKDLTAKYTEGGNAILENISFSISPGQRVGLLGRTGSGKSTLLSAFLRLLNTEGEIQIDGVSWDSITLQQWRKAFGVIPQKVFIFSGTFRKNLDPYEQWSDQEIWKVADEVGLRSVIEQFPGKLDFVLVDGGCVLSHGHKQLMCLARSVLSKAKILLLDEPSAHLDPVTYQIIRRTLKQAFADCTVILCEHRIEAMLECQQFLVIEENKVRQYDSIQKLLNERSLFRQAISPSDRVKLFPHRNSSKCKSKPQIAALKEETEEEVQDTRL
From the text: (§1) DNA cloning: Wild-type CFTR coding region was inserted into pcDNA5/FRT (Invitrogen, San Diego, Calif.) between EcoRV and ApaI.
(§2) Single CFTR gene mutations were introduced into the wild-type CFTR coding sequence by using QuickChange XL site-directed mutagenesis kit (Stratagene, Cambridge, UK). The CFTR coding region as well as its promoter sequence and 3′ untranslated sequence was fully sequenced to confirm the mutagenesis reaction.
(§3) The CFTR gene was stably expressed in Fisher rat thyroid (FRT) cells through FlpIn system. The FRT-FlpIn host cell line was generated by stably transfecting FRT cells with pFRT/lacZeo. The single integration of a FRT site was confirmed by Southern blot. After the mutant CFTR DNA was transfected into the FRT-FlpIn host cell line, the cells were incubate at 37° C. in Coon's modified Ham's F12 containing 10% FBS, 1% Pen/Strep, and 36 ml of Na− Bicarbonate for up to 8 passages under hygromycin selection (200 ug/ml).
(§4) All cells were grown on Costar® Snapwell™ cell culture inserts at maintained at 37° C. prior to recording. The cell culture inserts were mounted into an Ussing chamber (VCC MC8; Physiologic Instruments, Inc., San Diego, Calif.) to record ISC in the voltage-clamp mode (Vhold=0 mV). For FRT cells, the basolateral membrane was permeabilized with 360 μg/ml Nystatin and a basolateral to apical Cl− gradient was established. The basolateral bath solution contained (in mM); 135 NaCl, 1.2 CaCl2, 1.2 MgCl2, 2.4 K2HPO4, 0.6 KHPO4, 10 N-2-hydroxyethylpiperazine-N′-2-ethanesulfonic acid (HEPES), and 10 dextrose (titrated to pH 7.4 with NaOH). The apical NaCl was replaced by equimolar Na+ gluconate (titrated to pH 7.4 with NaOH). For HBE cells, the ISC was measured in the presence of a basolateral to apical Cl− gradient. The normal Cl− solution contained (in mM) 145 NaCl, 3.3 K2HPO4, 1.2 MgCl2, 1.2 CaCl2, 10 Glucose, 10 HEPES (pH adjusted to 7.35 with NaOH) and the low Cl− solution contained (in mM) 145 NaGluconate, 1.2 MgCl2, 1.2 CaCl2, 10 glucose, 10 HEPES (pH adjusted to 7.35 with NaOH). All recordings were digitally acquired using a Acquire and Analyze software (version 2; Physiologic Instruments, Inc. San Diego, Calif.).
(§5) The 10 μM forskolin stimulated response in FRT cell expressing different mutant CFTR forms or in HBE cells isolated from CF patients was normalized to the 10 μM forskolin-stimulated response in FRT cells expressing wild-type CFTR or in HBE isolated from non-CF individuals and expressed as % wild-type CFTR. In HBE, amiloride was added prior to forskolin application to block the epithelial Na+ channel.

human CFTR mutant S1251N = molecular target: T2, human CFTR mutant S1251N (Homo sapiens, UniProt P13569, S1251N); test: FRT cell Ussing chamber chloride transport assay; conditions: FRT cells expressing S1251N CFTR
T2 construct: expressed in transfected cells; host or cells: Fisher rat thyroid (FRT) FlpIn cells, pcDNA5/FRT
T2 sequence (P13569 whole entry S1251N): as the sequence (P13569 whole entry D110H) above, with H110D, S1251N counted along it
From the text: as §1, §2, §3, §4, §5

human CFTR mutant R117C = molecular target: T3, human CFTR mutant R117C (Homo sapiens, UniProt P13569, R117C); test: FRT cell Ussing chamber chloride transport assay; conditions: FRT cells expressing R117C CFTR
T3 construct: expressed in transfected cells; host or cells: Fisher rat thyroid (FRT) FlpIn cells, pcDNA5/FRT
T3 sequence (P13569 whole entry R117C): as the sequence (P13569 whole entry D110H) above, with H110D, R117C counted along it
From the text: as §1, §2, §3, §4, §5

human CFTR mutant S1235R = molecular target: T4, human CFTR mutant S1235R (Homo sapiens, UniProt P13569, S1235R); test: FRT cell Ussing chamber chloride transport assay; conditions: FRT cells expressing S1235R CFTR
T4 construct: expressed in transfected cells; host or cells: Fisher rat thyroid (FRT) FlpIn cells, pcDNA5/FRT
T4 sequence (P13569 whole entry S1235R): as the sequence (P13569 whole entry D110H) above, with H110D, S1235R counted along it
From the text: as §1, §2, §3, §4, §5

human CFTR mutant G1349D = molecular target: T5, human CFTR mutant G1349D (Homo sapiens, UniProt P13569, G1349D); test: FRT cell Ussing chamber chloride transport assay; conditions: FRT cells expressing G1349D CFTR
T5 construct: expressed in transfected cells; host or cells: Fisher rat thyroid (FRT) FlpIn cells, pcDNA5/FRT
T5 sequence (P13569 whole entry G1349D): as the sequence (P13569 whole entry D110H) above, with H110D, G1349D counted along it
From the text: as §1, §2, §3, §4, §5

human CFTR mutant D110E = molecular target: T6, human CFTR mutant D110E (Homo sapiens, UniProt P13569, D110E); test: FRT cell Ussing chamber chloride transport assay; conditions: FRT cells expressing D110E CFTR
T6 construct: expressed in transfected cells; host or cells: Fisher rat thyroid (FRT) FlpIn cells, pcDNA5/FRT
T6 sequence (P13569 whole entry D110E): as the sequence (P13569 whole entry D110H) above, with H110E counted along it
From the text: as §1, §2, §3, §4, §5

human CFTR mutant L206W = molecular target: T7, human CFTR mutant L206W (Homo sapiens, UniProt P13569, L206W); test: FRT cell Ussing chamber chloride transport assay; conditions: FRT cells expressing L206W CFTR
T7 construct: expressed in transfected cells; host or cells: Fisher rat thyroid (FRT) FlpIn cells, pcDNA5/FRT
T7 sequence (P13569 whole entry L206W): as the sequence (P13569 whole entry D110H) above, with H110D, L206W counted along it
From the text: as §1, §2, §3, §4, §5

human CFTR mutant G178R = molecular target: T8, human CFTR mutant G178R (Homo sapiens, UniProt P13569, G178R); test: FRT cell Ussing chamber chloride transport assay; conditions: FRT cells expressing G178R CFTR
T8 construct: expressed in transfected cells; host or cells: Fisher rat thyroid (FRT) FlpIn cells, pcDNA5/FRT
T8 sequence (P13569 whole entry G178R): as the sequence (P13569 whole entry D110H) above, with H110D, G178R counted along it
From the text: as §1, §2, §3, §4, §5

human CFTR mutant G551S = molecular target: T9, human CFTR mutant G551S (Homo sapiens, UniProt P13569, G551S); test: FRT cell Ussing chamber chloride transport assay; conditions: FRT cells expressing G551S CFTR
T9 construct: expressed in transfected cells; host or cells: Fisher rat thyroid (FRT) FlpIn cells, pcDNA5/FRT
T9 sequence (P13569 whole entry G551S): as the sequence (P13569 whole entry D110H) above, with H110D, G551S counted along it
From the text: as §1, §2, §3, §4, §5

human CFTR mutant D579G = molecular target: T10, human CFTR mutant D579G (Homo sapiens, UniProt P13569, D579G); test: FRT cell Ussing chamber chloride transport assay; conditions: FRT cells expressing D579G CFTR
T10 construct: expressed in transfected cells; host or cells: Fisher rat thyroid (FRT) FlpIn cells, pcDNA5/FRT
T10 sequence (P13569 whole entry D579G): as the sequence (P13569 whole entry D110H) above, with H110D, D579G counted along it
From the text: as §1, §2, §3, §4, §5

human CFTR mutant G970R = molecular target: T11, human CFTR mutant G970R (Homo sapiens, UniProt P13569, G970R); test: FRT cell Ussing chamber chloride transport assay; conditions: FRT cells expressing G970R CFTR
T11 construct: expressed in transfected cells; host or cells: Fisher rat thyroid (FRT) FlpIn cells, pcDNA5/FRT
T11 sequence (P13569 whole entry G970R): as the sequence (P13569 whole entry D110H) above, with H110D, G970R counted along it
From the text: as §1, §2, §3, §4, §5

human CFTR mutant A455E = molecular target: T12, human CFTR mutant A455E (Homo sapiens, UniProt P13569, A455E); test: FRT cell Ussing chamber chloride transport assay; conditions: FRT cells expressing A455E CFTR
T12 construct: expressed in transfected cells; host or cells: Fisher rat thyroid (FRT) FlpIn cells, pcDNA5/FRT
T12 sequence (P13569 whole entry A455E): as the sequence (P13569 whole entry D110H) above, with H110D, A455E counted along it
From the text: as §1, §2, §3, §4, §5

ΔF508-CFTR = molecular target: T13, ΔF508-CFTR (Homo sapiens, UniProt P13569, DEL508-508); test: Membrane potential optical assay for ΔF508-CFTR potentiation (FLIPR III); conditions: relative efficacy; ΔF508-CFTR NIH 3T3 cells
T13 construct: expressed in transfected cells; host or cells: NIH3T3 mouse fibroblasts
T13 sequence (P13569 with tags, fused parts or gaps DEL508-508): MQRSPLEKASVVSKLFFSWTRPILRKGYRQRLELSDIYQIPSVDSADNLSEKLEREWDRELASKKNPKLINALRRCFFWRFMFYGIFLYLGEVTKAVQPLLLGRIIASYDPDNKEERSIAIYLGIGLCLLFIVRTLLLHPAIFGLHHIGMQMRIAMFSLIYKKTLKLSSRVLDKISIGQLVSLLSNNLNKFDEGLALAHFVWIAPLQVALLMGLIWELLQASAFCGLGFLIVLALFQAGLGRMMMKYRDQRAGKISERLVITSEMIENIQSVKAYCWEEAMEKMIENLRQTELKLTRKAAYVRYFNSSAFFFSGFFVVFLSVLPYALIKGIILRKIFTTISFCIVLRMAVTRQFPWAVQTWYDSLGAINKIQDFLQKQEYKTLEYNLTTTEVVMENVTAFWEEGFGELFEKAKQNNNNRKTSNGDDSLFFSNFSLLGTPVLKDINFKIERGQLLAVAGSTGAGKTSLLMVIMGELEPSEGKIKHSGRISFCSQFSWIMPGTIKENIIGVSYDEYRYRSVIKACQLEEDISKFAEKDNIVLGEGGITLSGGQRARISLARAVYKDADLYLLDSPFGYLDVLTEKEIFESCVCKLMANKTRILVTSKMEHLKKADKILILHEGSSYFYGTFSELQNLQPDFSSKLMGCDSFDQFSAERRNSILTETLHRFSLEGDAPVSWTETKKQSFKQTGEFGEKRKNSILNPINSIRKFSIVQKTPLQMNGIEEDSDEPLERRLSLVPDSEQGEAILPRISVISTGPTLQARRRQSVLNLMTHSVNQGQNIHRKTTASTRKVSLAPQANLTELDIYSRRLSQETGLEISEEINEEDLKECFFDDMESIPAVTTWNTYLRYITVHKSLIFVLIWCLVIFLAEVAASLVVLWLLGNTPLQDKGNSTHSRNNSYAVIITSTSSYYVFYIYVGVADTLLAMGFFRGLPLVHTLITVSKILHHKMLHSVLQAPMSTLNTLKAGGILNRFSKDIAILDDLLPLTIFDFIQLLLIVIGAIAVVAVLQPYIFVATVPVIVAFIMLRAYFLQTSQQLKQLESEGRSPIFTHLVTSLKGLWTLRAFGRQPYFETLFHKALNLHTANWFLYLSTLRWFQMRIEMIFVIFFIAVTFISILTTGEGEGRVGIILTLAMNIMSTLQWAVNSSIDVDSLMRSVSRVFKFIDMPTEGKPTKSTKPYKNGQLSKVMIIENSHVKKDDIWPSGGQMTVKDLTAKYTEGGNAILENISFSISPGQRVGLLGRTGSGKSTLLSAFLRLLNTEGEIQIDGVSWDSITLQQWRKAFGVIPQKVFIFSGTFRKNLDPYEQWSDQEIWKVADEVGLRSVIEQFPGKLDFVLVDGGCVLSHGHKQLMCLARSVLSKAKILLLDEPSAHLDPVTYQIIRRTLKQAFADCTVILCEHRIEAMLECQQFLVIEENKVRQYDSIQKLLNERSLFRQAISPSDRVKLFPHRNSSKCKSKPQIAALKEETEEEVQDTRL
From the text: The assay utilizes fluorescent voltage sensing dyes to measure changes in membrane potential using a fluorescent plate reader (e.g., FLIPR III, Molecular Devices, Inc.) as a readout for increase in functional ΔF508-CFTR in NIH 3T3 cells. The driving force for the response is the creation of a chloride ion gradient in conjunction with channel activation by a single liquid addition step after the cells have previously been treated with compounds and subsequently loaded with a voltage sensing dye. To identify potentiators of ΔF508-CFTR, a double-addition HTS assay format was developed. This HTS assay utilizes fluorescent voltage sensing dyes to measure changes in membrane potential on the FLIPR III as a measurement for increase in gating (conductance) of ΔF508 CFTR in temperature-corrected ΔF508 CFTR NIH 3T3 cells. The driving force for the response is a Cl^− ion gradient in conjunction with channel activation with forskolin in a single liquid addition step using a fluorescent plate reader such as FLIPR III after the cells have previously been treated with potentiator compounds (or DMSO vehicle control) and subsequently loaded with a redistribution dye. Bath Solution #1: (in mM) NaCl 160, KCl 4.5, CaCl2 2, MgCl2 1, HEPES10, pH 7.4 with NaOH. Chloride-free bath solution: Chloride salts in Bath Solution #1 (above) are substituted with gluconate salts. […]

CC(C)(C)c1cc(C(C)(C)C)c(NC(=O)c2c[nH]c3ccccc3c2=O)cc1O [Compound 1, N-[2,4-bis(1,1-dimethylethyl)-5-hydroxyphenyl]-1,4-dihydro-4-oxoquinoline-3-carboxamide]
++ (“++” means between 25% to 100%): % Activity (ΔF508-CFTR)
greater than or equal to 10%: increase in chloride transport, relative to baseline chloride transport (human CFTR mutant D110H) | increase in chloride transport, relative to baseline chloride transport (human CFTR mutant R117C) | increase in chloride transport, relative to baseline chloride transport (human CFTR mutant S1235R) | increase in chloride transport, relative to baseline chloride transport (human CFTR mutant D110E) | increase in chloride transport, relative to baseline chloride transport (human CFTR mutant L206W) | increase in chloride transport, relative to baseline chloride transport (human CFTR mutant D579G) | increase in chloride transport, relative to baseline chloride transport (human CFTR mutant A455E)
greater than 10 fold: increase in chloride transport, relative to baseline chloride transport (human CFTR mutant S1251N) | increase in chloride transport, relative to baseline chloride transport (human CFTR mutant G1349D) | increase in chloride transport, relative to baseline chloride transport (human CFTR mutant G178R) | increase in chloride transport, relative to baseline chloride transport (human CFTR mutant G551S) | increase in chloride transport, relative to baseline chloride transport (human CFTR mutant G970R)
